Data taken from US20060205774A1, “4-(4-(Heterocyclylakoxy) phenyl-1-(heterocyclyl-carbonyl) piperidine derivavites and related compounds as histamine h3 antagonists for the treatment of neurological diseases such as alzheimer's” (priority 2003, published 2006).

The compounds below were run against T1, histamine H3 receptor (Homo sapiens, UniProt Q9Y5N1) (assay: Histamine H3 functional antagonist assay (GTPγS SPA on membranes)). Details: membranes of CHO K1 cells expressing human histamine H3; [35S]GTPγS; histamine 0.3 μM.
T1 construct: expressed in transfected cells; host or cells: CHO K1 cells carrying pSwitch, transfected with pGeneH3, mifepristone-induced; clone 3H3; membrane preparation
T1 sequence (Q9Y5N1 whole entry): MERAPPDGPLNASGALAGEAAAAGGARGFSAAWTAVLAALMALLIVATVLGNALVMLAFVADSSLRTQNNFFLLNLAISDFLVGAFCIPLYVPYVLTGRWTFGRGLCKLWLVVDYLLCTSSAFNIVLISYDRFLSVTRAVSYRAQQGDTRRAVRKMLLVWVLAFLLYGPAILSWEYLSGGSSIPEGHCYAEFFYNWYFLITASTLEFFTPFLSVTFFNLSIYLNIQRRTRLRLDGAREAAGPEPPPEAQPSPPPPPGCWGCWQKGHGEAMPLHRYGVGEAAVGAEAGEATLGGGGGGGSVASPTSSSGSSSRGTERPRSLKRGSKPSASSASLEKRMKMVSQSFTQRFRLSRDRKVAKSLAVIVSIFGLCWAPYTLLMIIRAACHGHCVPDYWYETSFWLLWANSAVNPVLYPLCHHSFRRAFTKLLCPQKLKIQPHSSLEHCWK
Type: biochemical
Experimental: A membrane preparation containing histamine H3 receptors may be prepared in accordance with the following procedures:
Ligated DNA was transformed into competent DH5α E. coli host bacterial cells and plated onto Luria Broth (LB) agar containing Zeocin™ (an antibiotic which allows the selection of cells expressing the sh ble gene which is present on pGene and pSwitch) at 50 μg ml^−1. Colonies containing the re-ligated plasmid were identified by restriction analysis. DNA for transfection into mammalian cells was prepared from 250 ml cultures of the host bacterium containing the pGeneH3 plasmid and isolated using a DNA preparation kit (Qiagen Midi-Prep) as per manufacturers guidelines (Qiagen).
CHO K1 cells previously transfected with the pSwitch regulatory plasmid (InVitrogen) were seeded at 2×10e6 cells per T75 flask in Complete Medium, containing Hams F12 (GIBCOBRL, Life Technologies) medium supplemented with 10% v/v dialysed foetal bovine serum, L-glutamine, and hygromycin (100 μg ml^−1), 24 hours prior to use. Plasmid DNA was transfected into the cells using Lipofectamine plus according to the manufacturers guidelines (InVitrogen). 48 hours post transfection cells were placed into complete medium supplemented with 500 μg ml^−1 Zeocin™.
10-14 days post selection 10 nM Mifepristone (InVitrogen), was added to the culture medium to induce the expression of the receptor. […] Approximately 1×10e7 cells were examined for receptor expression by staining with a rabbit polyclonal antibody, 4a, raised against the N-terminal domain of the histamine H3 receptor, incubated on ice for 60 minutes, followed by two washes in sorting medium. […] Following two further washes with Sorting Medium, cells were filtered through a 50 μm Filcon™ (BD Biosciences) and then analysed on a FACS Vantage SE Flow Cytometer fitted with an Automatic Cell Deposition Unit. […] Positively stained cells were sorted as single cells into 96-well plates, containing Complete Medium containing 500 μg ml^−1 Zeocin™ and allowed to expand before reanalysis for receptor expression via antibody and ligand binding studies. […]

Kb, < 1 nM:
CC(C)N1CCC(Oc2ccc(C3CCN(C(=O)c4ccc(C#N)cc4)CC3)cc2)CC1 [Example E12, 4-{[4-(4-{[1-(1-Methylethyl)-4-piperidinyl]oxy}phenyl)-1-piperidinyl]carbonyl}benzonitrile]
CC(C)N1CCC(Oc2ccc(C3CCN(C(=O)c4ccc(C#N)nc4)CC3)cc2)CC1 [Example E51, 5-{[4-(4-{[1-(1-Methylethyl)-4-piperidinyl]oxy}phenyl)-1-piperidinyl]carbonyl}-2-pyridinecarbonitrile]
CC(C)N1CCC(Oc2ccc(C3CCN(C(=O)c4ccc(C(F)(F)F)nc4)CC3)cc2)CC1 [Example E52, 5-{[4-(4-{[1-(1-Methylethyl)-4-piperidinyl]oxy}phenyl)-1-piperidinyl]carbonyl}-2-(trifluoromethyl)pyridine]
